Laboratory results: US11819576B2, “Process for preparing nano-or microparticles comprising a carrier-polymer and one or more biologically active ingredients” (Evonik Operations GmbH, priority 2019, dated 2023)
In brackets after ≈: the same amount, converted by molar mass.

Legend:
[1] = physchem; conditions: 22 °C, organic solvent or mixture, thermodynamic from solid, Solubility in mg/ml
Description: 100 μl n-butanol was added and the dispersion was stirred at ˜300 to 500 rpm by a magnetic stirrer at 21-23° C. n-Butanol was added 10 μl wise.
100 μl water saturated n-butanol (achieved from example 4) was added and the dispersion was stirred at ˜300 to 500 rpm by a magnetic stirrer at 21-23° C. n-Butanol was added 10 μl wise.
100 μl 25% aqueous NaCl solution saturated n-butanol (achieved from example 6) was added and the dispersion was stirred at ˜300 to 500 rpm by a magnetic stirrer at 21-23° C. n-Butanol was added 10 μl wise.
31.35 mg efavirenz (Angene Intemational Limited, China) was weighed into a 10 ml glass vial containing a 1 cm magnetic bar. 50 μl n-butanol was added and the dispersion was stirred at ˜300 to 500 rpm by a magnetic stirrer at 21-23° C. n-Butanol was added 10 μl wise.
30.57 mg efavirenz was weighed into a 10 ml glass vial containing a 1 cm magnetic bar. 50 μl water saturated n-butanol (achieved from example 4) was added and the dispersion was stirred at ˜300 to 500 rpm by a magnetic stirrer at 21-23° C. Water saturated n-butanol was added 10 μl wise till 250 μl. After 250 μl, 25 μl wise addition was used.
31.35 mg efavirenz was weighed into a 10 ml glass vial containing a 1 cm magnetic bar. 50 μl 25% aqueous NaCl solution saturated n-butanol (achieved from example 6) was added and the dispersion was stirred at ˜300 to 500 rpm by a magnetic stirrer at 21-23° C. […]

[2] = Telmisartan release profile, dissolution test using USP II dissolution tester, acetate buffer pH 4.0, 2 h; assay type: physicochemical; conditions: acetate buffer pH 4.0, USP II
Description: FIG. 2), Telmisartan release profile was analyzed by a dissolution test using a USP II dissolution tester (ERWEKA GmbH, Langen, Germany) at pH 4.0 acetate buffer for 2 h (shown in […]

## Cc1ccc(-c2cc(C(F)(F)F)nn2-c2ccc(S(N)(=O)=O)cc2)cc1 [Celecoxib, celecoxib]
[1]
  solubility: 22 mg/mL (≈ 57.7 mM)

## CCCc1nc2c(C)cc(-c3nc4ccccc4n3C)cc2n1Cc1ccc(-c2ccccc2C(=O)O)cc1 [Telmisartan pure active, Telmisartan]
[2]; time 0 min
  Release of Telmisartan: 0.040%
[2]; time 5 min
  Release of Telmisartan: 0.081%
[2]; time 10 min
  Release of Telmisartan: 0.148%
[2]; time 15 min
  Release of Telmisartan: 0.185%
[2]; time 30 min
  Release of Telmisartan: 0.240%
[2]; time 45 min
  Release of Telmisartan: 0.613%
[2]; time 60 min
  Release of Telmisartan: 0.310%
[2]; time 90 min
  Release of Telmisartan: 0.671%
[2]; time 120 min
  Release of Telmisartan: 0.343%
